Assays:
[1] = tested on: SOD2 acetylation in human arterioles; assay: SOD2 acetylation in human arterioles treated ex vivo (Western blot); type: cell-based; conditions: arterioles from hypertensive subjects, 0.5 μM, 24 hours, DMEM
Protocol: FIGS. 8A-D show Western blots of mitochondrial isoLGs (A) in human arterioles from normotensive and hypertensive subjects (n=5), (B) development of mitochondria-targeted isoLG scavenger mito2HOBA and (C, D) SOD2 acetylation in human arterioles isolated from normotensive and hypertensive subjects and treated ex vivo with mito2HOBA (0.5 μM, 24 hours, DMEM). Data were normalized by Complex I levels (Sham is 100%). Data are mean±SEM. *P<0.01 vs Normotensive Sham, **P<0.01 vs Hypertensive (n=5).
Arterioles (100 to 200-μm diameter) were harvested from human mediastinal fat obtained from patients during cardiac surgery enrolled in the Risk of Oxygen during Cardiac Surgery (ROCS) randomized clinical trial with essential hypertension (BP>140/90 mmHg) and normotensive subjects as previously described for Western blot analysis of SOD2 and SOD2 acetylation. Full informed consent was obtained for all tissue samples.
Hypertension is associated with inactivation of mitochondrial deacetylase Sirt3 and hyperacetylation of mitochondrial superoxide dismutase (SOD2). To study the potential role of mitochondrial isoLGs in Sirt3 inactivation, we developed the mitochondria-targeted isoLG scavenger mito2HOBA (FIG. 8B). Mito2HOBA selectively accumulates in the mitochondria due to its lipophilic cation triphenylphosphonium. […]

[2] = tested on: mitochondrial isoLG-Lysyl-Lactam protein adducts; assay: isoLG-Lysyl-Lactam adducts in kidney mitochondria by LC/MS/MS; type: in vivo, mouse; conditions: Ang II-infused mice, mito2HOBA 0.1 g/L
Source text: FIGS. 10A-D show the effect of mito2HOBA on angiotensin II-induced hypertension and accumulation of mitochondrial isoLGs protein adducts. (A) Blood pressure tail-cuff measurements in male Sham or angiotensin II-infused mice supplied with mito2HOBA in drinking water (0.1 g/L) or equimolar amount of untargeted analog 2HOBA (0.17 mmol/L). (B) Telemetry studies of blood pressure in angiotensin II-infused mice supplied with mito2HOBA or plain water as a vehicle. (C) Representative LC/MS/MS chromatograms of isoLG-Lysyl-Lactam adduct; (D) isoLG-Lys-Lactam levels in kidney mitochondria isolated from Sham or angiotensin II-infused mice supplied with mito2HOBA. Results are mean±SEM. *P<0.01 vs Sham, **P<0.01 vs Ang II (n=8).
C57B1/6J mice were sacrificed by carbon dioxide and kidneys removed, cleaned from fat tissue and placed in the ice-slurry cold isolation medium. […] Mitochondrial protein concentration was measured by Bradford method.
IsoLG-Lysyl-Lactam adducts were measured in mitochondria isolated from the kidneys of sham or angiotensin II-infused mice using Mass Spectrometry. […] A [^13C6] internal standard was added and the isoLG-lysyl adducts were purified by solid phase extraction and HPLC before being quantified by Liquid Chromatography-tandem Mass Spectrometry assay (LC/ESI/MS/MS) using isotopic dilution as described previously.

[3] = tested on: aortic mitochondrial proteins (SOD2, CypD, NDUFS1); assay: Western blot analysis of mitochondrial acetylation and isoLG adducts in aortas of angiotensin II-infused mice; type: in vivo, mouse
Source text: FIGS. 11A-D show Western blot analysis of mitochondrial acetylation in aortas isolated from Sham and angiotensin II-infused mice treated with mito2HOBA. (A) Typical Western blots isoLG-protein adducts (D11 ab), Sirt3, Acetyl-Lysine, SOD2-K68-Acetylation, CypD Acetylation, isoLG adduct with complex I NDUFS1 75 KDa subunit and mitochondrial complex I; (B) Sirt3 levels; (C) mitochondrial protein lysine acetylation; (D) SOD2-K68-Acetyl levels; and (E) CypD-Acetyl levels. Mice supplied with mito2HOBA (m2H) in drinking water (0.1 g/L) and angiotensin II (osmotic pump, 0.7 mg/kg/day) for 14 days. Data were normalized by Complex I levels (Sham is 100%). Results are mean±SEM (n=5). *P<0.01 vs Sham, **P<0.01 vs angiotensin II (Ang II).
Dihydroethidium (DHE) and MitoSOX superoxide probes were supplied by Invitrogen (Grand Island, NY). Sirt3 (54905) antibodies were from Cell Signaling. Acetyl-K68-SOD2 (ab137037), complex I NDUFS1 75 kDa subunit (ab22094) and CypD (ab110324) and GAPDH (ab8245) antibodies were from Abcam. SOD2 (sc30080) antibodies were obtained from Santa Cruz Biotechnology. Acetyl-lysine antibodies (ab3839) were provided by Millipore-Sigma. D11, an isoLG-lysyl adducts-specific scFv antibody, has been previously characterized. All antibodies were used at 1000-fold dilution. […] All other reagents were obtained from Sigma (St Louis, MO).

NCc1ccc(OCCCC[P+](c2ccccc2)(c2ccccc2)c2ccccc2)cc1O [mito2HOBA]
SOD2 acetylation [1]: significantly reduced
isoLG-Lysyl-Lactam adducts formation in kidney mitochondria [2]: abolished
SOD2 acetylation in aortas ([3]; % compared to control mice, Ang II plus mito2HOBA): 147%
CypD acetylation in aortas ([3]; % compared to control, Ang II plus mito2HOBA): 156%
hyperacetylation of mitochondrial proteins in aortas ([3]; Ang II 14 days, mito2HOBA 0.1 g/L (Ang II alone 420%)): normalized
isoLG-complex I NDUFS1 subunit adduct levels ([3]; Ang II plus mito2HOBA): reduced
mitochondrial isoLG adducts in aortic mitochondria ([3]; Ang II plus mito2HOBA): inhibited formation

— patent US12564580B2, “Mitochondria-targeted isoketal/isolevuglandin scavengers and uses thereof” (Vanderbilt University, priority 2020, dated 2026)
